In ChEMBL document CHEMBL1201862, “PubChem BioAssay data set” (2004):
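1) Cells in 96-well plates. 2) Compound, 48 h, 5 concentrations. 3) Linear interpolation between surrounding doses. 4) Unreached endpoint = highest concentration. GI50 = concentration required for 50% inhibition of growth.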 Active and inactive are the calls of the source. Rule as the data show it: active = GI50 up to about 1.1 µM and inactive = higher.

Experiments:
Experiment in all cases: NCI anticancer screen, dose series, 48 h
NCI-H226 = tested on: NCI-H226
OVCAR-3 = tested on: OVCAR-3
KM12 = tested on: KM12
DLD-1 = tested on: DLD-1
IGROV-1 = tested on: IGROV-1
K562 = tested on: K562
KM-20L2 = tested on: KM-20L2
COLO 205 = tested on: COLO 205
HCT-15 = tested on: HCT-15
NCI-H23 = tested on: NCI-H23
TK-10 = tested on: TK-10
U-251 = tested on: U-251
OVCAR-4 = tested on: OVCAR-4
M14 = tested on: M14
SNB-78 = tested on: SNB-78
HCT-116 = tested on: HCT-116
SNB-19 = tested on: SNB-19
ACHN = tested on: ACHN
EKVX = tested on: EKVX
HL-60 = tested on: HL-60
Malme-3M = tested on: Malme-3M
DMS-273 = tested on: DMS-273
HOP-18 = tested on: HOP-18
SK-MEL-5 = tested on: SK-MEL-5
A549 = tested on: A549
SK-OV-3 = tested on: SK-OV-3
LXFL 529 = tested on: LXFL 529
M19-MEL = tested on: M19-MEL
OVCAR-8 = tested on: OVCAR-8
OVCAR-5 = tested on: OVCAR-5
A498 = tested on: A498
NCI-H522 = tested on: NCI-H522
UACC-62 = tested on: UACC-62
SF-268 = tested on: SF-268
NCI-H460 = tested on: NCI-H460
LOX IMVI = tested on: LOX IMVI
786-0 = tested on: 786-0
CAKI-1 = tested on: CAKI-1
HCC 2998 = tested on: HCC 2998
SN12C = tested on: SN12C
CCRF-CEM = tested on: CCRF-CEM
SK-MEL-2 = tested on: SK-MEL-2
SF-295 = tested on: SF-295
MOLT-4 = tested on: MOLT-4
UO-31 = tested on: UO-31
HOP-62 = tested on: HOP-62
SF-539 = tested on: SF-539
HT-29 = tested on: HT-29
DMS-114 = tested on: DMS-114
RPMI-8226 = tested on: RPMI-8226
HOP-92 = tested on: HOP-92
UACC-257 = tested on: UACC-257
XF498 = tested on: XF498
SW-620 = tested on: SW-620
SK-MEL-28 = tested on: SK-MEL-28
RXF 393 = tested on: RXF 393
SNB-75 = tested on: SNB-75
SR = tested on: SR

Measured: GI50

COc1cc(C(=O)C/C(CCC(=O)Nc2ccc(Cl)cc2C)=N/NC(=O)C(N)=O)ccc1O
inactive: NCI-H226 > 100 µM | OVCAR-3 > 100 µM | KM12 > 100 µM | DLD-1 > 100 µM | IGROV-1 > 100 µM | K562 > 100 µM | KM-20L2 > 100 µM | COLO 205 > 100 µM | NCI-H23 > 100 µM | TK-10 > 100 µM | U-251 > 100 µM | OVCAR-4 > 100 µM | M14 > 100 µM | SNB-78 > 100 µM | HCT-116 > 100 µM | SNB-19 > 100 µM | ACHN > 100 µM | EKVX > 100 µM | HL-60 > 100 µM | Malme-3M > 100 µM | DMS-273 > 100 µM | HOP-18 > 100 µM | SK-MEL-5 > 100 µM | A549 > 100 µM | SK-OV-3 65.3 µM | LXFL 529 > 100 µM | M19-MEL > 100 µM | OVCAR-8 > 100 µM | OVCAR-5 > 100 µM | A498 > 100 µM | NCI-H522 > 100 µM | UACC-62 > 100 µM | SF-268 > 100 µM | NCI-H460 > 100 µM | LOX IMVI > 100 µM | 786-0 > 100 µM | CAKI-1 > 100 µM | HCC 2998 > 100 µM | SN12C > 100 µM | CCRF-CEM > 100 µM | SK-MEL-2 > 100 µM | SF-295 > 100 µM | MOLT-4 > 100 µM | UO-31 43.1 µM | HOP-62 > 100 µM | SF-539 > 100 µM | HT-29 > 100 µM | DMS-114 > 100 µM | RPMI-8226 > 100 µM | HOP-92 > 100 µM | UACC-257 > 100 µM | XF498 > 100 µM | SW-620 > 100 µM
> 100 µM: HCT-15

O=C(/C=C/c1c(O)ccc2ccccc12)c1ccc([N+](=O)[O-])cc1
inactive: NCI-H226 > 100 µM | OVCAR-3 17.3 µM | SK-MEL-28 30.1 µM | KM12 67.1 µM | DLD-1 18.7 µM | RXF 393 23.1 µM | IGROV-1 > 60.8 µM | K562 > 49.4 µM | KM-20L2 > 100 µM | COLO 205 33.1 µM | SNB-75 > 83 µM | NCI-H23 23.1 µM | TK-10 > 53.5 µM | U-251 46.5 µM | OVCAR-4 18.5 µM | M14 19.8 µM | SNB-78 21.6 µM | HCT-116 19.3 µM | SNB-19 > 88.9 µM | ACHN 22.1 µM | EKVX 41.9 µM | HL-60 9.77 µM | Malme-3M 22.9 µM | DMS-273 > 78.7 µM | HOP-18 15.2 µM | SK-MEL-5 19.4 µM | A549 > 95.9 µM | SK-OV-3 > 100 µM | LXFL 529 16.6 µM | M19-MEL 18.5 µM | OVCAR-8 37.2 µM | OVCAR-5 > 100 µM | A498 > 100 µM | NCI-H522 17 µM | UACC-62 17.4 µM | SR 32.7 µM | SF-268 41.5 µM | NCI-H460 46.9 µM | LOX IMVI 16.7 µM | 786-0 24.5 µM | CAKI-1 37.8 µM | HCC 2998 97.9 µM | SN12C 20 µM | CCRF-CEM 17.9 µM | SK-MEL-2 33.2 µM | SF-295 > 66.2 µM | MOLT-4 43.6 µM | UO-31 > 43 µM | HOP-62 > 100 µM | SF-539 37.8 µM | HT-29 54.1 µM | DMS-114 21.3 µM | RPMI-8226 25.9 µM | HOP-92 16.1 µM | UACC-257 25.2 µM | XF498 27.5 µM | SW-620 25.2 µM
25.2 µM: HCT-15
